Structures are written as SMILES. Where two headings read alike, the source gives them in different places.

Assay [1] has as its system genotype A, "Long" strain RSV. Nature of the assay: RSV-A assay (CPE protection in Hep-2 cells, ATPlite readout). In kind it is cell-based, Human respiratory syncytial virus (HRSV). To be noted: human respiratory syncytial virus, MOI 0.1, CPE protection. Summed up:
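Protection from RSV-induced cytopathic effect measured by ATP content (ATPlite) after 5-day culture. Infection used genotype A Long virus at MOI 0.1 on 8,000 Hep-2 cells per well, with compound serially diluted 2-fold; values are EC50.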

For assay [2], the system named is HMPV clinical isolate TN/1501/A1. Nature of the assay: HMPV antiviral assay Method-B (clinical isolate TN/1501/A1 in LLC-MK2 cells, ATP-Lite readout). In kind it is cell-based, Human metapneumovirus (HMPV). To be noted: human metapneumovirus, LLC-MK2, 144 h, hMPV WT1501 (clinical isolate TN/1501/A1), 6 days. Put shortly: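 EC50 derived by four-parameter logistic fit of percent cell health, measured by ATP-Lite luminescence and normalised to virus-only and uninfected-cell controls. Compounds run in duplicate from 10 μM top, 3-fold, 10 points. Infection: LLC-MK2 cells, MOI 0.014, 2 μg/mL final TPCK-trypsin, serum-free, 6 days at 37° C.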

The mark [3] stands for this setting: genotype A “Long” strain RSV, read-out: Human RSV-A (“Long”).
[4] abbreviates: RSV-A Long strain, read-out: Human RSV-A (“Long”) EC50.

Turning to `C[C@]1(C(N)=O)COc2c1cc([C@@](O)(CNC(=O)c1cc(Cl)c3nn(C(F)F)cc3c1)C1CC1)nc2-c1ccc(F)c(Cl)c1F` [Example 570], the EC50 in assay [1] (setting [3]) is less than 200 nM; in assay [2], less than 500 nM.
With `COc1cc(C(=O)NC[C@](O)(c2cc3c(c(-c4ccc(F)cc4)n2)OC[C@@]3(CF)C(N)=O)C2CC2)cc2cn(C3CC3)nc12` [Example 1063], the EC50 was greater than 200 nM in assay [1] (setting [4]) and greater than 500 nM in assay [2].
On the same counts, the results for `COc1cc(C(=O)NC[C@](O)(c2cc3c(c(-c4ccc(Cl)c(F)c4)n2)OC[C@]3(C)C(N)=O)C(F)(F)F)cc2cn(C3CC3)nc12` [Example 986] are less than 200 nM and less than 500 nM.
On the same counts, the results for `COc1cc(C(=O)NC[C@](O)(c2cc3c(c(-c4cccc(F)c4F)n2)OC[C@]3(C)C(N)=O)C(F)(F)F)cc2cn(C3CC3)nc12` [Example 988] are less than 200 nM and less than 500 nM.
With `COc1cc(C(=O)NC[C@](O)(c2cc3c(c(-c4ccc5[nH]ccc5c4)n2)OC[C@]3(C)C(N)=O)C(F)(F)F)cc2cn(C3CC3)nc12` [Example 969], the EC50 in assay [1] (setting [4]) is greater than 200 nM; in assay [2], greater than 500 nM.
Turning to `COc1cc(C(=O)NC[C@](O)(c2cc3c(c(-c4cc(Cl)c(F)c(Cl)c4)n2)OC[C@]3(C)C(N)=O)C(F)(F)F)cc2cc(Cl)c(C)nc12` [Example 674], the EC50 in assay [1] (setting [3]) is less than 200 nM; in assay [2], greater than 500 nM.
On to `C[C@]1(C(N)=O)COc2c1cc([C@@](O)(CNC(=O)c1cc3c(cn1)OC(F)(F)O3)C(F)(F)F)nc2-c1ccc(F)cc1` [Example 1067], for which the EC50 in assay [1] (setting [4]) was less than 200 nM; in assay [2] it was greater than 500 nM.
On to `Cc1cnc2c(OC(F)F)cc(C(=O)NC[C@](O)(c3cc4c(c(-c5ccc(F)c(Cl)c5F)n3)OC[C@]4(C)C(N)=O)C(F)(F)F)cc2c1` [Example 553], for which the EC50 in assay [1] (setting [3]) was less than 200 nM; in assay [2] it was less than 500 nM.
On the same counts, the results for `COc1cc(C(=O)NC[C@](O)(c2cc3c(c(-c4ccc5c(c4)OC(F)(F)O5)n2)OC[C@]3(C)C(N)=O)C(F)(F)F)cc2cc(C3CC3)nn12` [Example 697] are less than 200 nM and less than 500 nM.
On the same counts, the results for `COc1cc(C(=O)NC[C@](O)(c2cc3c(c(-c4ccc(F)cc4Cl)n2)OC[C@]3(C)C(N)=O)C(F)(F)F)cc2cc(Cl)c(C)nc12` [Example 509] are less than 200 nM and less than 500 nM.
Regarding `COc1cc(C(=O)NC[C@](O)(c2cc3c(c(-c4csc5ccccc45)n2)OC[C@]3(C)C(N)=O)C(F)(F)F)cc2cn(C3CC3)nc12` [Example 943], the results for the EC50 in assay [1] (setting [4]) and in assay [2] were less than 200 nM and greater than 500 nM, respectively.
In the case of `COc1cc(C(=O)NC[C@](O)(c2cc3c(c(-c4ccc(F)c(F)c4F)n2)OC[C@]3(C)C(N)=O)C(F)(F)F)cc2cc(Br)cnc12` [Example 520], the EC50 was less than 200 nM in assay [1] (setting [3]) and less than 500 nM in assay [2].
On the same counts, the results for `COc1cc(C(=O)NC[C@](O)(c2cc3c(c(-c4ccc(F)c(Cl)c4F)n2)OC[C@]3(C)C(N)=O)C(F)(F)F)cc2cc(Cl)c(C)nc12` [Example 552] are less than 200 nM and less than 500 nM.
On to `COc1ccc(C(=O)NC[C@](O)(c2cc3c(c(-c4ccc(F)cc4)n2)OC[C@]3(C)C(N)=O)C(F)(F)F)c2cc[nH]c12` [Example 693], for which the EC50 was less than 200 nM in assay [1] (setting [3]) and greater than 500 nM in assay [2].
As to `C[C@]1(C(N)=O)COc2c1cc([C@@](O)(CNC(=O)c1cc(Cl)c3nn(C4CC4)cc3c1)C(F)(F)F)nc2-c1ccc(F)c(F)c1Cl` [Example 780], the EC50 is less than 200 nM in assay [1] (setting [3]) and less than 500 nM in assay [2].
Consider `COc1cc(C(=O)NC[C@](O)(c2cc3c(c(-c4ccc(OC(F)(F)F)c(Cl)c4)n2)OC[C@]3(C)C(N)=O)C(F)(F)F)cc2cn(C3CC3)nc12` [Example 983], for which the EC50 in assay [1] (setting [4]) is less than 200 nM; in assay [2], greater than 500 nM.
In the case of `COc1cc(C(=O)NC[C@](O)(c2cc3c(c(-c4ccc(F)c(Cl)c4)n2)OC[C@@]3(C(N)=O)C(F)F)C(F)(F)F)cc2sc(C)nc12` [Example 1019], the EC50 in assay [1] (setting [4]) is less than 200 nM; in assay [2] it was less than 500 nM.
As for `COc1cc(C(=O)NC[C@](O)(c2cc3c(c(-c4cccc(Br)c4F)n2)OC[C@]3(C)C(N)=O)C2CC2)cc2cn(C3CC3)nc12` [Example 1085], the figures for the EC50 in assay [1] (setting [4]) and in assay [2] were less than 200 nM and less than 500 nM, respectively.
On the same counts, the results for `Cc1onc2ccc(C(=O)NC[C@](O)(c3cc4c(c(-c5ccc(F)cc5)n3)OC[C@]4(C)C(N)=O)C(F)(F)F)cc12` [Example 887] are less than 200 nM and greater than 500 nM.
Turning to `C[C@]1(C(N)=O)COc2c1cc([C@@](O)(CNC(=O)c1ccc3nn(C4CC4)cc3c1)C1CC1)nc2-c1c(F)ccc(Cl)c1F` [Example 1167], the figures for the EC50 in assay [1] (setting [4]) and in assay [2] were less than 200 nM and less than 500 nM, respectively.
On the same counts, the results for `COc1cc(C(=O)NC[C@](O)(c2cc3c(c(-c4ccc5c(c4)OC(F)(F)O5)n2)OC[C@]3(C(N)=O)C(F)F)C2CC2)cc2cc(C3CC3)nn12` [Example 1012] are greater than 200 nM and greater than 500 nM.
For the molecule `COc1cc(C(=O)NC[C@](O)(c2cc3c(c(-c4ccc(F)cc4)n2)OC[C@]3(C)C(N)=O)C(F)(F)F)n2ccnc2c1` [Example 691], the EC50 is less than 200 nM in assay [1] (setting [3]) and greater than 500 nM in assay [2].
In the case of `Cc1cnc2c(OC(F)F)cc(C(=O)NC[C@](O)(c3cc4c(c(-c5ccc(F)c(F)c5Cl)n3)OC[C@]4(C)C(N)=O)C(F)(F)F)cc2c1` [Example 781], the EC50 in assay [1] (setting [3]) was less than 200 nM; in assay [2], less than 500 nM.
In the case of `COc1cc(C(=O)NCC(O)(c2cc3c(c(-c4cc(F)c(F)c(F)c4)n2)OC[C@]3(C)C(N)=O)C(F)(F)F)cc2cn(C3CC3)nc12` (some centres unmarked) [Example 916], the EC50 in assay [1] (setting [4]) was less than 200 nM; in assay [2], less than 500 nM.
Regarding `COc1cc(C(=O)NC[C@](O)(c2cc3c(c(-c4cc(Cl)c(F)cc4F)n2)OC[C@]3(C)C(N)=O)C2(F)CC2)cc2cc(Cl)c(C)nc12` [Example 760], the results for the EC50 in assay [1] (setting [3]) and in assay [2] were less than 200 nM and less than 500 nM, respectively.
Regarding `COc1cc(-c2nc([C@@](O)(CNC(=O)c3cc(OC)c4nn(C5CC5)cc4c3)C(F)(F)F)cc3c2OC[C@]3(C)C(N)=O)ccc1Cl` [Example 934], the EC50 in assay [1] (setting [4]) was less than 200 nM; in assay [2], greater than 500 nM.
Turning to `COc1cc(C(=O)NC[C@](O)(c2cc3c(c(-c4ccc(Cl)c(F)c4F)n2)OC[C@]3(C)C(N)=O)C(F)(F)F)cc2cn(C3CC3)nc12` [Example 929], the EC50 in assay [1] (setting [4]) was less than 200 nM; in assay [2] it was less than 500 nM.
Turning to `COc1cc(C(=O)NC[C@](O)(c2nc(-c3ccc(F)cc3)c3c(c2F)[C@@](C)(C(N)=O)CO3)C(F)(F)F)cc2cc(Cl)c(C)nc12` [Example 855], the EC50 was less than 200 nM in assay [1] (setting [4]) and less than 500 nM in assay [2].
Regarding `COc1cc(C(=O)NC[C@](O)(c2cc3c(c(-c4ccc5c(c4)OC(F)(F)O5)n2)OC[C@]3(C)C(N)=O)C(F)(F)F)cc2cn(C3CC3)nc12` [Example 893], the EC50 in assay [1] (setting [4]) was less than 200 nM; in assay [2], less than 500 nM.
For the molecule `COc1cc(C(=O)NC[C@](O)(c2cc3c(c(-c4cccc(F)c4Cl)n2)OC[C@]3(C)C(N)=O)C(F)(F)F)cc2cc(Br)cnc12` [Example 1121], the EC50 in assay [1] (setting [4]) was less than 200 nM; in assay [2] it was less than 500 nM.
On the same counts, the results for `COc1ncc2cc(C(=O)NC[C@](O)(c3cc4c(c(-c5ccc(F)cc5)n3)OC[C@]4(C)C(N)=O)C3CC3)cc(OC)c2n1` [Example 1144] are less than 200 nM and greater than 500 nM.

Values taken from US12612412B2, “Antiviral heterocyclic compounds” (Enanta Pharmaceuticals, Inc., priority 2021, dated 2026).
